Biological target: Muscarinic acetylcholine receptor
Assay: Ability to inhibit binding of [3H]QNB to Muscarinic acetylcholine receptor in cultured N4TG1 neuroblastoma cells at 1e-8 to 1e-3 M

Row | I 50 | Structure (SMILES)
1 | 1500 µM | CC(C)CSC[C@H]1OC(n2cnc3c(N)ncnc32)[C@H](O)[C@@H]1O (some centres undefined)
2 | 210 µM | CC(C)CSCC1CC(n2cnc3c(N)nccc32)C(O)C1O (centres undefined)
3 | 52 µM | CC(C)CSC[C@H]1OC(n2cnc3c(N)ccnc32)[C@H](O)[C@@H]1O (some centres undefined)
4 | 39 µM | CC(C)CSC[C@H]1OC(n2cnc3c(N)nccc32)[C@H](O)[C@@H]1O (some centres undefined)

Source: ChEMBL document CHEMBL1122922, “Inhibition of muscarinic receptor binding and acetylcholine-induced contraction of guinea pig ileum by analogues of 5'-(isobutylthio)adenosine” (J Med Chem, 1985)
